Reference: US20100184989A1, “De Novo Synthesis of Conjugates” (Nektar Therapeutics, priority 2007, published 2010)

Target: calcium channel type L (Rattus norvegicus, UniProt P22002)
Assay: Calcium channel type L binding assay, [3H]Nitrendipine displacement
Conditions: rat cortical membranes; [3H]Nitrendipine 0.2 nM; 50 mM TRIS-HCl pH 7.7, 25° C., 60 minutes; nifedipine reference value given beside each test compound
Experimental: In the assay, rat cortical membranes were used as a receptor source and the radioligand [^3H]Nitrendipine (70-87 Ci/mmol) was used at a final ligand concentration of 0.2 nM. […] The reactions were carried out in 50 mM TRIS-HCl (pH 7.7) at 25° C. for 60 minutes. The reaction was terminated by rapid vacuum filtration onto glass fiber filters. Radioactivity trapped onto the filters was determined and compared to control values in order to ascertain any interactions of test compound with the nitredipine binding site (Gould, Murphy, and Snyder. Molecular Pharmacology 25, 235-241 (1984)).

Chain of calcium channel type L (P22002 whole entry): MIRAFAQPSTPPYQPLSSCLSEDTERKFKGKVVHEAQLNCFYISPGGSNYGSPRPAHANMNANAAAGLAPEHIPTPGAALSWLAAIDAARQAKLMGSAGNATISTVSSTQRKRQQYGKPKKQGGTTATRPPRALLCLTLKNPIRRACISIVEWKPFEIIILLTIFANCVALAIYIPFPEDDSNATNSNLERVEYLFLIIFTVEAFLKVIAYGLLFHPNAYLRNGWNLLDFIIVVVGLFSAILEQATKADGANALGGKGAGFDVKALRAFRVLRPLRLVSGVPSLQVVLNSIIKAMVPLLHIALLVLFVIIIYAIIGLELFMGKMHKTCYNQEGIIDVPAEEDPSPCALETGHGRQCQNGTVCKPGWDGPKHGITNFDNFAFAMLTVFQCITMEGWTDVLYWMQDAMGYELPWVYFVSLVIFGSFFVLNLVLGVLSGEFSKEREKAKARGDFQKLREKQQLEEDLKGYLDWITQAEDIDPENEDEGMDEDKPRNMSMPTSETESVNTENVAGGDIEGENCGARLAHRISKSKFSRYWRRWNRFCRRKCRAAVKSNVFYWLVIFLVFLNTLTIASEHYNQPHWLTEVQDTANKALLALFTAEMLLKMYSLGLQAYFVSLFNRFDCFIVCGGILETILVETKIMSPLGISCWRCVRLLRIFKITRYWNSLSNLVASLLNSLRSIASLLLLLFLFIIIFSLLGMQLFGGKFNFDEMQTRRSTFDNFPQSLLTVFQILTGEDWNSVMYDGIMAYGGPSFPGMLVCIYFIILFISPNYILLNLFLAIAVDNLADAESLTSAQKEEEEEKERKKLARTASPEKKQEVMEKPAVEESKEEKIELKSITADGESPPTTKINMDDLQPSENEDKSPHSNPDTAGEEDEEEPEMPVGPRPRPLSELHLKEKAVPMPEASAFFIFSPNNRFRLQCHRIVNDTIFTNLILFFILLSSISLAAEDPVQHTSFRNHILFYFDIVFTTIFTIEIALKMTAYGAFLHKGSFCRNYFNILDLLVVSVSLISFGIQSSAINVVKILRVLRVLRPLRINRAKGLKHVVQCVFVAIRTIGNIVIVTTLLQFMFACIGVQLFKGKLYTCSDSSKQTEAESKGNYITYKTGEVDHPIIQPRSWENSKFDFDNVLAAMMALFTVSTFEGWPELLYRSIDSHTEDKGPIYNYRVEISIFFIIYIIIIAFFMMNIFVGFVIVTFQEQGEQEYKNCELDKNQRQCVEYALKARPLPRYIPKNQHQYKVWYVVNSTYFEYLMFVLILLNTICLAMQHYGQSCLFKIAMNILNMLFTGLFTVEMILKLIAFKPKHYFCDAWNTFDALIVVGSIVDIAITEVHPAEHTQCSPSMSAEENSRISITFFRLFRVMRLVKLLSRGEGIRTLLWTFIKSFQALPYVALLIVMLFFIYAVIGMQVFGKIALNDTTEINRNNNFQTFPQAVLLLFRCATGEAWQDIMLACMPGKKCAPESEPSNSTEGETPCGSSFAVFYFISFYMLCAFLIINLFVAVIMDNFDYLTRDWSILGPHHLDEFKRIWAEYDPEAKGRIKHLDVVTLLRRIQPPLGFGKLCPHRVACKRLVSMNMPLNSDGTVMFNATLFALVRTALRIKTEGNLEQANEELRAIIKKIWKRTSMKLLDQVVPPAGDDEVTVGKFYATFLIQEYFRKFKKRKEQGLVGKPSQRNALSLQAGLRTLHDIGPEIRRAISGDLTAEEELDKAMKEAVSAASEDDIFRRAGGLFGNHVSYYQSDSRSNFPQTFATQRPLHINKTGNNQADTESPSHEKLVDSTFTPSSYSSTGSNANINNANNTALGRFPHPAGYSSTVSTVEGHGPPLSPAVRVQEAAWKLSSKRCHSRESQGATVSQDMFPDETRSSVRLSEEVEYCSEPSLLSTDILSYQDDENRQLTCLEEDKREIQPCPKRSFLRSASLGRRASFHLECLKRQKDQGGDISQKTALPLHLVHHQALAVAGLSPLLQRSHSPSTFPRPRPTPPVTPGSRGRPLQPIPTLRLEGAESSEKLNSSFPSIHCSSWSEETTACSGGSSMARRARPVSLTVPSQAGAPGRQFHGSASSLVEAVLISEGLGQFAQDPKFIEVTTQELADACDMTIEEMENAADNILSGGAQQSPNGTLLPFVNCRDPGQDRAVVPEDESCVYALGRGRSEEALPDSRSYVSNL

With `COCCOCCOCCOC(=O)C1=C(C)NC(C)=C(C(=O)OCCOCCOCCOC)C1c1ccccc1[N+](=O)[O-]` [compound (2) from Example 1, 2,6-dimethyl 4-(2-nitrophenyl)-1,4-dihydropyridine-3,5-dicarboxylic acid dimethoxy tri(ethylene glycol)ester] as the molecule, how does the IC50 read?
Its IC50 is 160 nM.

`COCCOCCOC(=O)C1=C(C)NC(C)=C(C(=O)OCCOCCOC)C1c1ccccc1[N+](=O)[O-]` [compound (6a) from Example 3, 2,6-dimethyl 4-(2-nitrophenyl)-1,4-dihydropyridine-3,5-dicarboxylic acid dimethoxy di(ethylene glycol)ester] was tested. Which IC50 did it give?
Its IC50 is 67.4 nM.

Which IC50 does the source give for `CCCCOCCOCCOC(=O)C1=C(C)NC(C)=C(C(=O)OCCOCCOCCCC)C1c1ccccc1[N+](=O)[O-]` [compound (6b) from Example 3, 2,6-dimethyl 4-(2-nitrophenyl)-1,4-dihydropyridine-3,5-dicarboxylic acid dibutoxy di(ethylene glycol)ester] here?
Its IC50 is 15.5 nM.

With `CCCCCCOCCOCCOC(=O)C1=C(C)NC(C)=C(C(=O)OCCOCCOCCCCCC)C1c1ccccc1[N+](=O)[O-]` [compound (6c) from Example 3, 2,6-dimethyl 4-(2-nitrophenyl)-1,4-dihydropyridine-3,5-dicarboxylic acid dihexoxy di(ethylene glycol)Ester] as the molecule, how does the IC50 read?
Its IC50 is 55.6 nM.
